Experiment [1] addresses T1, human TPST2 (Homo sapiens, UniProt O60704).
T1 construct: TPST2 (residues Gly43–Leu359) enzymes lacking the transmembrane domains; made in house; host or cells: E. coli BL21 (DE3) pLysS
T1 sequence (O60704 43-359): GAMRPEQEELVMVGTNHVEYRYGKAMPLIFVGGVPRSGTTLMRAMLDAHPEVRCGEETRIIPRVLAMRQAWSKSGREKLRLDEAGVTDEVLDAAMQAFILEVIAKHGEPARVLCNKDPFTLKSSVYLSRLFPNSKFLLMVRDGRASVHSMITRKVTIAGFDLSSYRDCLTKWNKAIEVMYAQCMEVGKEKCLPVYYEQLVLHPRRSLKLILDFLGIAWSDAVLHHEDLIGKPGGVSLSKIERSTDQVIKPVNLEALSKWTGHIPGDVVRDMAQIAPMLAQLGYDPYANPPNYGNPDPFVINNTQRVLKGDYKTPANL
Description: Differential scanning fluorimetry (thermal shift) assay with TPST2. In kind it is binding. The settings on record: DSF, TPST2 5 µM.

Experiment [2] deals with T2, human TPST1 (Homo sapiens, UniProt O60507).
T2 construct: human TPST1 (residues Lys43–Leu360) and TPST2 (residues Gly43–Leu359) enzymes lacking the transmembrane domains; made in house; host or cells: E. coli BL21 (DE3) pLysS
T2 sequence (O60507 43-360): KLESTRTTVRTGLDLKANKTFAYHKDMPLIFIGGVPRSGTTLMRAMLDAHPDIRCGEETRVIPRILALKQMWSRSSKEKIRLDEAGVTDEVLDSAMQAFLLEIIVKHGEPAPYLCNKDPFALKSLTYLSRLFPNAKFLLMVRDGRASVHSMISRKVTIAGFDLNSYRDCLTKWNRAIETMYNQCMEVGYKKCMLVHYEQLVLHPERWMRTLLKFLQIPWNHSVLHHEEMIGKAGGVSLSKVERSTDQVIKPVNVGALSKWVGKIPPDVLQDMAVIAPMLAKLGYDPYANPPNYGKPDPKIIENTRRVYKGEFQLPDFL
Kind of experiment: Differential scanning fluorimetry (thermal shift) assay with TPST1. The settings on record: DSF, TPST1 5 µM. In kind it is binding. On the technique in general: Differential scanning fluorimetry follows unfolding on heating by fluorescence.

The test system of a further experiment is TPST2. Particulars: cited from earlier work.
In the next experiment the test system is TPST1. Particulars: read-out: Km for PAPS, TPST1, literature reports; cited from earlier work.
The target of experiment [3] is T2, human TPST1. Kind of experiment: EZ Reader II microfluidic mobility-shift CC4-tide sulfation assay, TPST1. Format: biochemical. The settings on record: 10 µM PAPS.
Experiment [4] deals with T1, human TPST2. Kind of experiment: EZ Reader II microfluidic mobility-shift CC4-tide sulfation assay, TPST2. In kind it is biochemical.
Experiment [5] relates to heparin sulfate 2-O sulfotransferase HS2ST. The arrangement: method as in PMID 29934491. The settings on record: cited from earlier work.
In experiment [6] the target is T2, human TPST1. Description: GST-CC4-tide tyrosine sulfation by TPST1, immunoblotting with monoclonal sulfotyrosine antibody. The settings on record: GST-CC4-tide 1 µg, 10 µM PAPS, increasing concentrations of inhibitor. In kind it is biochemical. The procedure:
After the assay, proteins were denatured in Laemmli sample buffer, heated at 95°C for 5 min and then analysed by SDS–PAGE with 10% (v/v) polyacrylamide gels. Gels were stained and destained using a standard Coomassie Brilliant Blue protocol. To evaluate protein sulfation and phosphorylation by immunoblotting, standard western blotting procedures were followed using monoclonal anti-sulfotyrosine antibody clone Sulfo-1C-A2 (Millipore) generated using a phage display procedure and sulfotyrosine selection peptide antigens in the presence of appropriate positive and negative controls, and modifications visualised using the ECL reagent.

Setting [7] is: 0.5 mM nucleotide, relative to buffer control.

Each structure is given as a SMILES string. Read-outs that look alike come from different tables or passages of the source.

Turning to `Nc1ncnc2c1ncn2C1OC(COP(=O)(O)OS(=O)(=O)O)C(OP(=O)(O)O)C1O` (stereo not shown) [PAPS, adenosine 3′-phosphate 5′-phosphosulfate], at human TPST2 [1] (setting [7]), the “ΔTm TPST2” value is approximately 9 °C. For the same compound, the “ΔTm TPST1” value on human TPST1 [2] (setting [7]) was approximately 3 °C. The Km with TPST2 (read-out: Km for PAPS, TPST2 obtained from transfected CHO cell medium) is 12 µM; in the experiment with TPST2 (read-out: Km for PAPS, recombinant TPST2 isolated from baculovirus-infected insect cells) it was approximately 5 µM; with TPST1, 2 to 5 µM.
Regarding `CC(=O)c1c(O)c(C)c(O)c(Cc2c(O)c3c(c(C(=O)/C=C/c4ccccc4)c2O)OC(C)(C)C=C3)c1O` [Rottlerin], the IC50 on human TPST1 [3] (TPST1 IC50 (rottlerin dose-response), Fig 6A, CC4-tide, normalised to 1% DMSO) was 0.5 µM; on human TPST1 [3] (TPST1 IC50, previously described compounds, Fig 6C, CC4-tide, normalised to 1% DMSO) it was approximately 1 µM; on human TPST1 [3] (TPST1 estimated IC50, RAF kinase inhibitors, Fig 8B, TPST1 0.1 µM pre-incubated with compound) it was 0.6 µM; on human TPST2 [4] it was 1.14 µM. In addition, the “Thermal shift of TPST2 (in words)” value at human TPST2 [1] (10 µM rottlerin) is on record as “positive”. Besides, the “Thermal shift of TPST1 (in words)” value on human TPST1 [2] (10 µM rottlerin) was “positive”. For the same compound, the “HS2ST inhibition in vitro (in words)” value in experiment [5] is “inhibitory activity”. Further, the “Inhibition of GST-CC4-tide tyrosine sulfation by TPST1 (immunoblot, in words)” value on human TPST1 [6] is “dose-dependent inhibition”.

Broadly, the Km is the substrate concentration at which the rate is half of its maximum. Broadly, the IC50 is the concentration that gives 50% inhibition.

The values are drawn from article PMC6094398, “New tools for evaluating protein tyrosine sulfation: tyrosylprotein sulfotransferases (TPSTs) are novel targets for RAF protein kinase inhibitors” (Biochemical Journal, 2018).
